Columns and labels:
[1] = Gelation test by vial inversion: gelation index and minimum gelation concentration (MGC); assay type: physicochemical; set-up: key to Gelation Index: I = Insoluble; PS = Partially Soluble
Procedure: (§1) Preparation and Characterization Molecular Gels. Gels were prepared by adding the solid glassy glycosides (10.0-50.0 mg gelator) to the desired solvent (1 mL). The mixture was then heated to disperse the gelator at five degrees below the boiling point of organic solvents, and at 125° C. for oils to produce a homogeneous sol. The sol was kept at this temperature for 10 minutes under constant agitation to fully disperse the gelator. The sol was then cooled to room temperature to allow for self-assembly and after a length of time (between 2-24 hours), the samples were inverted to confirm gel formation. The efficacy of gel formation was examined by determining the minimum gelation concentration (MGC) and gel-to-sol transition temperature (Tgel). Gel samples were diluted with solvent until after setting and vial inversion a gel, partial gel, or sol was formed. The gel transition temperature was determined by submersing a gel sample in an oil bath, and increasing the temperature until the gel flowed like a liquid, indicating the disassembly of the gelator structure. MGC was determined beginning from 5 wt. % samples (50 mg gelator in 1 mL solvent) or below the concentration of precipitation for gelators and diluting the samples until a sol is formed.

[2] = Gel-to-sol transition temperature (Tgel) in oil bath; assay type: physicochemical
Procedure: as §1, with “structure.” for “structure. MGC was determined beginning from 5 wt. % samples (50 mg gelator in 1 mL solvent) or below the concentration of precipitation for gelators and diluting the samples until a sol is formed.”

CCCCCCCC(=O)OC[C@H]1O[C@@H](Oc2ccc(CCC(C)=O)cc2)[C@H](O)[C@@H](O)[C@@H]1O [RKG8, ((2R,3S,4S,5R,6S)-3,4,5-trihydroxy-6-(4-(3-oxobutyl)phenoxy)tetrahydro-2H-pyran-2-yl) methyl octanoate]
Minimum Gelation Concentration ([1]; Coconut Oil (edible oil)): 0.27 wt. %
Minimum Gelation Concentration ([1]; Grape seed Oil (edible oil)): 0.25 wt. %
Minimum Gelation Concentration ([1]; Hazelnut Oil (edible oil)): 0.26 wt. %
Minimum Gelation Concentration ([1]; Hexanes (organic solvent)): 2.1 wt. %
Minimum Gelation Concentration ([1]; Jojoba Oil (edible oil)): 0.25 wt. %
Minimum Gelation Concentration ([1]; Mineral Oil (organic solvent)): 1.4 wt. %
Minimum Gelation Concentration ([1]; Red Palm Oil (edible oil)): 0.34 wt. %
Minimum Gelation Concentration ([1]; Toluene (organic solvent)): 0.5 wt. %
Gelation Index ([1]; Water (aqueous solvent)): I
Tgel ([2]; 5 wt. % gel in Coconut Oil): 106-107 °C
Tgel ([2]; 5 wt. % gel in Olive Oil): 108-110 °C
Tgel ([2]; 5 wt. % gel in Toluene): 48-50 °C

CCCCCCCCCCCCCCCCCC(=O)OCC1OC(Oc2ccc(CCC(C)=O)cc2)C(O)C(O)C1O (stereo not drawn) [RKG18, raspberry ketone glucoside stearate]
Minimum Gelation Concentration ([1]; Coconut Oil (edible oil)): 0.28 wt. %
Minimum Gelation Concentration ([1]; Grape seed Oil (edible oil)): 0.30 wt. %
Minimum Gelation Concentration ([1]; Hazelnut Oil (edible oil)): 0.24 wt. %
Minimum Gelation Concentration ([1]; Hexanes (organic solvent)): 0.24 wt. %
Minimum Gelation Concentration ([1]; Jojoba Oil (edible oil)): 0.26 wt. %
Minimum Gelation Concentration ([1]; Mineral Oil (organic solvent)): 0.24 wt. %
Minimum Gelation Concentration ([1]; Red Palm Oil (edible oil)): 0.36 wt. %
Minimum Gelation Concentration ([1]; Toluene (organic solvent)): 0.36 wt. %
Gelation Index ([1]; Water (aqueous solvent)): I
Tgel ([2]; 5 wt. % gel in Coconut Oil): 111-112 °C

CCCCCCCCC=CCCCCCCCC(=O)OCC1OC(Oc2ccc(CCC(C)=O)cc2)C(O)C(O)C1O (stereo not drawn) [RKGO, raspberry ketone glucoside oleate]
Minimum Gelation Concentration ([1]; Coconut Oil (edible oil)): 0.54 wt. %
Minimum Gelation Concentration ([1]; Grape seed Oil (edible oil)): 0.66 wt. %
Minimum Gelation Concentration ([1]; Hazelnut Oil (edible oil)): 0.56 wt. %
Minimum Gelation Concentration ([1]; Jojoba Oil (edible oil)): 0.48 wt. %
Minimum Gelation Concentration ([1]; Mineral Oil (organic solvent)): 0.80 wt. %
MGC ([1]; RKGO gels compared to saturated analogues): greater than 0.5 wt. %
Minimum Gelation Concentration ([1]; Red Palm Oil (edible oil)): 0.72 wt. %
Minimum Gelation Concentration ([1]; Toluene (organic solvent)): 0.73 wt. %

CC(=O)CCc1ccc(O[C@@H]2O[C@H](CO)[C@@H](O)[C@H](O)[C@H]2O)cc1 [Raspberry ketone glucoside, reference compound]
Gelation Index ([1]; Coconut Oil (edible oil)): I
Gelation Index ([1]; Grape seed Oil (edible oil)): I
Gelation Index ([1]; Hazelnut Oil (edible oil)): I
Gelation Index ([1]; Hexanes (organic solvent)): I
Gelation Index ([1]; Jojoba Oil (edible oil)): I
Gelation Index ([1]; Mineral Oil (organic solvent)): I
Gelation Index ([1]; Red Palm Oil (edible oil)): I
Gelation Index ([1]; Toluene (organic solvent)): PS
Gelation Index ([1]; Water (aqueous solvent)): PS

Source: patent US10258072B2, “Environmentally friendly gelator using medium chain triglycerides and method of use” (Research Foundation of the City University of New York, priority 2014, dated 2019)
